Measured values taken from US20060069132A1, “Azolecarboxamide herbicides” (priority 2004, published 2006).
Where two headings read alike, the source gives them in different places.

Key:
velvetleaf = experiment: Test A pre-/postemergence herbicide test; type: in vivo, Abutilon theophrasti; details: Abutilon theophrasti, 240 h; for pest or weed control at 2000 g/ha: 2000 g ai/ha
Outline: (§1)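 Greenhouse injury scoring (0–100, complete control = 100) at approximately ten days follows simultaneous pre- and postemergence application. Soil received a directed spray after seeding; seedlings of 2–10 cm at the one- to two-leaf stage were sprayed to runoff.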

giant foxtail [1] = experiment: Test A pre-/postemergence herbicide test; type: in vivo, Setaria faberi; details: Setaria faberi, 240 h; for pest or weed control at 500 g/ha: 500 g ai/ha; for pest or weed control at 2000 g/ha: 2000 g ai/ha
Outline: as §1

large crabgrass = experiment: Test A pre-/postemergence herbicide test; type: in vivo, Digitaria sanguinalis; details: Digitaria sanguinalis, 240 h; for pest or weed control at 500 g/ha: 500 g ai/ha; for pest or weed control at 2000 g/ha: 2000 g ai/ha
Outline: as §1

woolly cupgrass = experiment: Test C pre-/postemergence herbicide test; type: in vivo, Eriochloa villosa; details: for pest or weed control at 250 g/ha: 250 g ai/ha; for pest or weed control at 125 g/ha: 125 g ai/ha
Outline: (§2)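 Pre/post spray; non-phytotoxic solvent + surfactant. Post-timing 1–4 leaves, 2–18 cm. Read-out: visual % control vs untreated, day 12–14, greenhouse.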

soybean = experiment: Test C pre-/postemergence herbicide test; type: in vivo, Glycine max; details: for plant injury at 125 g/ha: 125 g ai/ha
Outline: as §2

yellow nutsedge = experiment: Test C pre-/postemergence herbicide test; type: in vivo, Cyperus esculentus; details: for pest or weed control at 125 g/ha: 125 g ai/ha
Outline: as §2

giant foxtail [2] = experiment: Test C pre-/postemergence herbicide test; type: in vivo, Setaria faberi; details: for pest or weed control at 250 g/ha: 250 g ai/ha; for pest or weed control at 125 g/ha: 125 g ai/ha
Outline: as §2

morningglory = experiment: Test C pre-/postemergence herbicide test; type: in vivo, Ipomoea coccinea
Outline: as §2

ducksalad = experiment: Test C flooded paddy test; type: in vivo, Heteranthera limosa; details: Heteranthera limosa
barnyardgrass = experiment: Test C flooded paddy test; type: in vivo, Echinochloa crus-galli; details: Echinochloa crus-galli
Outline: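 Postemergence sprays were applied to plants 2 to 18 cm tall (1- to 4-leaf stage); in the flooded paddy test, barnyardgrass was grown to the 2-leaf stage. After 12 to 14 days in a greenhouse, injury was visually rated against untreated controls on a 0–100 scale (100 = complete control).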

[3] = post-emergence, Postemergence, 0 to 100 scale, 0 no effect, 100 complete control, read-out: Plant response rating, Foxtail, Giant
[4] = post-emergence, Postemergence, 0 to 100 scale, 0 no effect, 100 complete control, read-out: Plant response rating, Crabgrass, Large

Work on `CCOC(=O)c1cccc(NC(=O)c2cc(C(C)(C)C)nn2CC)c1` [Compound 80, ethyl 3-[[[3-(1,1-dimethylethyl)-1-ethyl-1H-pyrazol-5-yl]carbonyl]-amino]benzoate] yielded a pest or weed control at 2000 g/ha (velvetleaf; post-emergence, Postemergence, 0 to 100 scale, 0 no effect, 100 complete control, read-out: Plant response rating, Velvetleaf) of 75%, a pest or weed control at 500 g/ha (velvetleaf; pre-emergence, Preemergence, 500 g ai/ha, visual rating, 0 to 100 scale (0 no effect, 100 complete control), read-out: Velvetleaf plant response rating) of 10% and a pest or weed control at 2000 g/ha (velvetleaf; pre-emergence, Preemergence, visual rating, 0 to 100 scale (0 no effect, 100 complete control), read-out: Velvetleaf plant response rating) of 10%. For the same molecule, the pest or weed control at 500 g/ha (giant foxtail [1]; [3]) was 80%, the pest or weed control at 2000 g/ha (giant foxtail [1]; [3]) was 90% and the pest or weed control at 500 g/ha (giant foxtail [1]; pre-emergence, Preemergence, visual rating, 0 to 100 scale (0 no effect, 100 complete control), read-out: Foxtail, Giant plant response rating) was 20%. For the same molecule, the pest or weed control at 2000 g/ha (giant foxtail [1]; pre-emergence, Preemergence, 0 to 100 scale, 0 no effect, 100 complete control, read-out: Foxtail, Giant plant response rating) was 70%, the pest or weed control at 500 g/ha (large crabgrass; [4]) was 70% and the pest or weed control at 2000 g/ha (large crabgrass; [4]) was 90%. The pest or weed control at 500 g/ha (large crabgrass; pre-emergence, Preemergence, visual rating, 0 to 100 scale (0 no effect, 100 complete control), read-out: Crabgrass, Large plant response rating) was 10%, the pest or weed control at 2000 g/ha (large crabgrass; pre-emergence, Preemergence, 0 to 100 scale, 0 no effect, 100 complete control, read-out: Crabgrass, Large plant response rating) was 30% and the “Plant response rating (0 = no effect, 100 = complete control), Cupgrass, Woolly” value (woolly cupgrass; 62 g ai/ha, preemergence) was 0. For the same molecule, the pest or weed control at 250 g/ha (woolly cupgrass; Eriochloa villosa, post-emergence, 312 h, Postemergence, scale 0 to 100, 0 no effect, 100 complete control, read-out: Plant response rating, Cupgrass, Woolly) was 90%, the pest or weed control at 125 g/ha (woolly cupgrass; Eriochloa villosa, post-emergence, 312 h, postemergence, scale 0 to 100, read-out: Plant response rating, Cupgrass, Woolly) was 90% and the pest or weed control at 62 g/ha (woolly cupgrass; Eriochloa villosa, post-emergence, 312 h, postemergence, 62 g ai/ha, scale 0 to 100, read-out: Plant response rating, Cupgrass, Woolly) was 80%. It also gave a pest or weed control at 31 g/ha (woolly cupgrass; Eriochloa villosa, pre-emergence, 312 h, 31 g ai/ha, preemergence, scale 0 to 100, read-out: Plant response rating, Cupgrass, Woolly) of 0%, a pest or weed control at 125 g/ha (woolly cupgrass; Eriochloa villosa, pre-emergence, 312 h, scale 0 (no effect) to 100 (complete control), visual, 12 to 14 days, read-out: Plant response rating, Cupgrass, Woolly) of 10% and a pest or weed control at 250 g/ha (woolly cupgrass; Eriochloa villosa, pre-emergence, 312 h, scale 0 to 100 (0 no effect, 100 complete control), visual, 12 to 14 days, read-out: Plant response rating, Cupgrass, Woolly) of 10%. For the same molecule, the “Plant response rating (0 = no effect, 100 = complete control), Soybean” value (soybean; 62 g ai/ha, preemergence) was 0, the plant injury at 250 g/ha (soybean; Glycine max, post-emergence, Postemergence, 250 g ai/ha, scale 0 to 100, 0 no effect, 100 complete control, read-out: Plant response rating, Soybean) was 100% and the plant injury at 125 g/ha (soybean; Glycine max, post-emergence, postemergence, scale 0 to 100, read-out: Plant response rating, Soybean) was 90%. It also gave a plant injury at 62 g/ha (soybean; Glycine max, post-emergence, postemergence, 62 g ai/ha, scale 0 to 100, read-out: Plant response rating, Soybean) of 90%, a plant injury at 31 g/ha (soybean; Glycine max, pre-emergence, 31 g ai/ha, preemergence, scale 0 to 100, read-out: Plant response rating, Soybean) of 0% and a plant injury at 125 g/ha (soybean; Glycine max, pre-emergence, scale 0 (no effect) to 100 (complete control), visual, 12 to 14 days, read-out: Plant response rating, Soybean) of 0%. For the same molecule, the “Plant response rating (0 = no effect, 100 = complete control), Nutsedge, Yellow” value (yellow nutsedge; 62 g ai/ha, preemergence) was 0, the pest or weed control at 250 g/ha (yellow nutsedge; Cyperus, post-emergence, Postemergence, 250 g ai/ha, scale 0 to 100, 0 no effect, 100 complete control, read-out: Plant response rating, Nutsedge, Yellow) was 40% and the pest or weed control at 125 g/ha (yellow nutsedge; Cyperus, post-emergence, postemergence, scale 0 to 100, read-out: Plant response rating, Nutsedge, Yellow) was 40%. It also gave a pest or weed control at 62 g/ha (yellow nutsedge; Cyperus, post-emergence, postemergence, 62 g ai/ha, scale 0 to 100, read-out: Plant response rating, Nutsedge, Yellow) of 40%, a pest or weed control at 31 g/ha (yellow nutsedge; Cyperus, pre-emergence, 31 g ai/ha, preemergence, scale 0 to 100, read-out: Plant response rating, Nutsedge, Yellow) of 0% and a pest or weed control at 125 g/ha (yellow nutsedge; Cyperus, pre-emergence, scale 0 (no effect) to 100 (complete control), visual, 12 to 14 days, read-out: Plant response rating, Nutsedge, Yellow) of 0%. For the same molecule, the “Plant response rating (0 = no effect, 100 = complete control), Foxtail, Giant” value (giant foxtail [2]; 62 g ai/ha, preemergence) was 10, the pest or weed control at 250 g/ha (giant foxtail [2]; Setaria faberi, post-emergence, 312 h, Postemergence, scale 0 to 100, 0 no effect, 100 complete control, read-out: Plant response rating, Foxtail, Giant) was 80% and the pest or weed control at 125 g/ha (giant foxtail [2]; Setaria faberi, post-emergence, 312 h, postemergence, scale 0 to 100, read-out: Plant response rating, Foxtail, Giant) was 80%. The pest or weed control at 62 g/ha (giant foxtail [2]; Setaria faberi, post-emergence, 312 h, postemergence, 62 g ai/ha, scale 0 to 100, read-out: Plant response rating, Foxtail, Giant) was 70%, the pest or weed control at 31 g/ha (giant foxtail [2]; Setaria faberi, pre-emergence, 312 h, 31 g ai/ha, preemergence, scale 0 to 100, read-out: Plant response rating, Foxtail, Giant) was 10% and the pest or weed control at 125 g/ha (giant foxtail [2]; Setaria faberi, pre-emergence, 312 h, scale 0 (no effect) to 100 (complete control), visual, 12 to 14 days, read-out: Plant response rating, Foxtail, Giant) was 40%. The pest or weed control at 250 g/ha (giant foxtail [2]; Setaria faberi, pre-emergence, 312 h, scale 0 to 100 (0 no effect, 100 complete control), visual, 12 to 14 days, read-out: Plant response rating, Foxtail, Giant) was 50%, the “Plant response rating (0 = no effect, 100 = complete control), Morningglory” value (morningglory; 62 g ai/ha, preemergence) was 20 and the pest or weed control at 250 g/ha (morningglory; Ipomoea, post-emergence, Postemergence, 250 g ai/ha, scale 0 to 100, 0 no effect, 100 complete control, read-out: Plant response rating, Morningglory) was 90%. It also gave a pest or weed control at 125 g/ha (morningglory; Ipomoea, post-emergence, postemergence, 125 g ai/ha, scale 0 to 100, read-out: Plant response rating, Morningglory) of 90%, a pest or weed control at 62 g/ha (morningglory; Ipomoea, post-emergence, postemergence, 62 g ai/ha, scale 0 to 100, read-out: Plant response rating, Morningglory) of 90% and a pest or weed control at 31 g/ha (morningglory; Ipomoea, pre-emergence, 31 g ai/ha, preemergence, scale 0 to 100, read-out: Plant response rating, Morningglory) of 0%. The pest or weed control at 62 g/ha (ducksalad; 62 g ai/ha, scale 0 to 100 (0 no effect, 100 complete control), read-out: Ducksalad plant response rating) was 20%, the pest or weed control at 125 g/ha (ducksalad; 125 g ai/ha, scale of 0 to 100, 0 is no effect, 100 is complete control, read-out: Ducksalad plant response rating) was 20% and the pest or weed control at 250 g/ha (ducksalad; 250 g ai/ha, scale of 0 to 100, 0 is no effect, 100 is complete control, read-out: Ducksalad plant response rating) was 20%. For the same molecule, the pest or weed control at 500 g/ha (ducksalad; 500 g ai/ha, visual rating after 12 to 14 days, scale 0 to 100 (0 no effect, 100 complete control), read-out: Plant response rating, Ducksalad) was 40%, the pest or weed control at 62 g/ha (barnyardgrass; 62 g ai/ha, scale 0 to 100 (0 no effect, 100 complete control), read-out: Barnyardgrass plant response rating) was 0% and the pest or weed control at 125 g/ha (barnyardgrass; 125 g ai/ha, scale of 0 to 100, 0 is no effect, 100 is complete control, read-out: Barnyardgrass plant response rating) was 20%. The pest or weed control at 250 g/ha (barnyardgrass; 250 g ai/ha, scale of 0 to 100, 0 is no effect, 100 is complete control, read-out: Barnyardgrass plant response rating) was 40% and the pest or weed control at 500 g/ha (barnyardgrass; 500 g ai/ha, visual rating after 12 to 14 days, scale 0 to 100 (0 no effect, 100 complete control), read-out: Plant response rating, Barnyardgrass) was 60%.
